# Reference: paper PMC7196807 (Proceedings of the National Academy of Sciences of the …, 2020)
# Target: hIP6K1 (IP6K1) (Homo sapiens, UniProt Q92551)
# Assay: kinase product identified by Dipp1 cocrystal structure
# Format: biochemical
# Settings: kinase site
# hIP6K1 (IP6K1), sequence (Q92551 whole entry): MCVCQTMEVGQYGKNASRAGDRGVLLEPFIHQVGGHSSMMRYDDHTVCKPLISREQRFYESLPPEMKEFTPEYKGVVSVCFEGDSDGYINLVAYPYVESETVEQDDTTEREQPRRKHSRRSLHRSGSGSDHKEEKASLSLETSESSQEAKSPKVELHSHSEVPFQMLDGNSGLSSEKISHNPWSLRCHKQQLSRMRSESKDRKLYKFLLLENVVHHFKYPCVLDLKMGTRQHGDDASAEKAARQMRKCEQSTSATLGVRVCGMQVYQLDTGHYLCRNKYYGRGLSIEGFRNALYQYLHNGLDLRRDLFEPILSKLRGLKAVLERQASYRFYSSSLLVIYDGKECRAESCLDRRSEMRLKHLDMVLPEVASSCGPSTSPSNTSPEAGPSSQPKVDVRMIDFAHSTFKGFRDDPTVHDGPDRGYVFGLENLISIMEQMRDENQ
smiles,measurement,value
O=P(O)(O)O[C@H]1[C@@H](OP(=O)(O)O)[C@H](OP(=O)(O)O)[C@@H](OP(=O)(O)OP(=O)(O)O)[C@H](OP(=O)(O)O)[C@H]1OP(=O)(O)O [5-IP7],kinase product identified by Dipp1 cocrystal structure,IP6K1 IP7 product/DIPP complex confirms the stereomer as unambiguously 5-IP7
